16 compounds from patent US12577206B2 (BRISTOL-MYERS SQUIBB COMPANY, priority 2020, dated 2026) can be followed below.

For orientation: EC50 means the concentration at which the effect is half-maximal.

The target in one assay is T1, human FPR1 (Homo sapiens, UniProt P21462).
T1 sequence (P21462 1-350): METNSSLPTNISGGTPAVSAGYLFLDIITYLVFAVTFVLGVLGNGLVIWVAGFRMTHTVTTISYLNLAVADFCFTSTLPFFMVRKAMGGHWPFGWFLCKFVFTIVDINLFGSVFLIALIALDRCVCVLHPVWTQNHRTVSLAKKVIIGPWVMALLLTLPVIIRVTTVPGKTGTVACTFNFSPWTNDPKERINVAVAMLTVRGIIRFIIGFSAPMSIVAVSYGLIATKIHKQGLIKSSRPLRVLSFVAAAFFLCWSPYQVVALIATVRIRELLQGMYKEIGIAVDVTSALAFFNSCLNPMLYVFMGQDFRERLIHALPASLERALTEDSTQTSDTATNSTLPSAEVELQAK
Briefly: FPR1 cyclic adenosine monophosphate (cAMP) assay. In kind it is cell-based. The settings on record: CHO cells overexpressing human FPR1; forskolin 10 μM; inhibition of cAMP production; HTRF; read-out: hFPR1 cAMP2 EC50. In short, it runs like this: (§1)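 CHO cells overexpressing human FPR1 (4,000/well) or FPR2 (2,000/well) were incubated 30 min at room temperature with compound (0.020 nM to 100 μM, 1% DMSO), IBMX 200 μM, and forskolin at 10 μM (FPR1) or 5 μM (FPR2), all final. HTRF cAMP read-out; inhibition fitted by 4-parameter logistic equation.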
For orientation: cAMP levels reflect the balance of adenylyl cyclase and phosphodiesterase activity.

In another assay the target is T2, human FPR2 (Homo sapiens, UniProt P25090).
T2 sequence (P25090 1-351): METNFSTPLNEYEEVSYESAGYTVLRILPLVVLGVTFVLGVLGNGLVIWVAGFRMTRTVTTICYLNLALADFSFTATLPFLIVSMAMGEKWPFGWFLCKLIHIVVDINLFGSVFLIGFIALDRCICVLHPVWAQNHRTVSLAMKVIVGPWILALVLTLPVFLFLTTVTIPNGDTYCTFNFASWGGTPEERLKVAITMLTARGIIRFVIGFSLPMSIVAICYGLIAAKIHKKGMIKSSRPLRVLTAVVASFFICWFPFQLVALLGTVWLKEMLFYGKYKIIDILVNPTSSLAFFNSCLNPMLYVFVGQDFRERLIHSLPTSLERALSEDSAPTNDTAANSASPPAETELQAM
The experiment in a line: FPR2 cyclic adenosine monophosphate (cAMP) assay. In kind it is cell-based. The settings on record: CHO cells overexpressing human FPR2; forskolin 5 μM; inhibition of cAMP production; HTRF; read-out: hFPR2 cAMP2 EC50. In short, it runs like this: as §1

For the compound `COCc1ccc(C(F)(F)F)c(-n2c(=O)c(NC(=O)c3ccc(OC(F)F)cc3)c(-c3c(F)cc(OC)cc3F)n2C)n1` [Example 196, N-[5-(2,6-difluoro-4-methoxyphenyl)-2-[6-(methoxymethyl)-3-(trifluoromethyl)pyridin-2-yl]-1-methyl-3-oxo-2,3-dihydro-1H-pyrazol-4-yl]-4-(difluoromethoxy)benzamide], the EC50 on human FPR1 was above 10000 nM; on human FPR2 it was 9 nM.
`COc1cc(F)c(-c2c(NC(=O)c3ccc(OC(F)F)cc3)c(=O)n(-c3cc(Cl)cc(OC(F)(F)F)c3)n2C)c(F)c1` [Example 123, N-{2-[3-chloro-5-(trifluoromethoxy)phenyl]-5-(2,6-difluoro-4-methoxyphenyl)-1-methyl-3-oxo-2,3-dihydro-1H-pyrazol-4-yl}-4-(difluoromethoxy)benzamide]: the values for the EC50 at human FPR1 and on human FPR2 were above 10000 nM and 19 nM, respectively.
For `COc1cc(F)c(-c2c(NC(=O)c3ccc(Cl)cc3)c(=O)n(-c3ccccc3F)n2C)c(F)c1` [Example 30, 4-chloro-4-N-[5-(2,6-difluoro-4-methoxyphenyl)-2-(2-fluorophenyl)-1-methyl-3-oxo-2,3-dihydro-1H-pyrazol-4-yl]benzamide], in that order: above 10000 nM and 18 nM.
As for `COc1cc(F)c(-c2c(NC(=O)c3ccc(OC(F)F)cc3)c(=O)n(-c3cc(C)cc(OCC4CCOC4)n3)n2C)c(F)c1` (centres unmarked) [Example 352, N-(5-(2,6-Difluoro-4-methoxyphenyl)-1-methyl-2-(4-methyl-6-((tetrahydrofuran-3-yl)methoxy)pyridin-2-yl)-3-oxo-2,3-dihydro-1H-pyrazol-4-yl)-4-(difluoromethoxy)benzamide], the EC50 is above 10000 nM on human FPR1 and 6 nM at human FPR2.
For `COc1cc(F)c(-c2c(NC(=O)c3ccc(OC(F)F)cc3)c(=O)n(-c3nc(N4CCN(CC(F)F)CC4)ccc3Cl)n2C)c(F)c1` [Example 240, N-(2-{3-chloro-6-[4-(2,2-difluoroethyl)piperazin-1-yl]pyridin-2-yl}-5-(2,6-difluoro-4-methoxyphenyl)-1-methyl-3-oxo-2,3-dihydro-1H-pyrazol-4-yl)-4-(difluoromethoxy)benzamide], in that order: 1300 nM and 2 nM.
Take `COc1cc(N2C[C@@H](C)N(C)[C@@H](C)C2)nc(-n2c(=O)c(NC(=O)c3ccc(OC(F)F)cc3)c(-c3c(F)cc(OC)cc3F)n2C)c1` [Example 93, N-[5-(2,6-difluoro-4-methoxyphenyl)-2-{4-methoxy-6-[(3R,5S)-3,4,5-trimethylpiperazin-1-yl]pyridin-2-yl}-1-methyl-3-oxo-2,3-dihydro-1H-pyrazol-4-yl]-4-(difluoromethoxy)benzamide]: the EC50 at human FPR1 was 1800 nM; on human FPR2 it was 2 nM.
For `COc1cc(F)c(-c2c(NC(=O)c3ccc(OC(F)F)cc3)c(=O)n(-c3nc(NC4CC4)ccc3C(F)(F)F)n2C)c(F)c1` [Example 251, N-{2-[6-(cyclopropylamino)-3-(trifluoromethyl)pyridin-2-yl]-5-(2,6-difluoro-4-methoxyphenyl)-1-methyl-3-oxo-2,3-dihydro-1H-pyrazol-4-yl}-4-(difluoromethoxy)benzamide], in that order: above 10000 nM and 2 nM.
For `COc1cc(F)c(-c2c(NC(=O)c3ccc(OC(F)(F)F)cc3)c(=O)n(-c3cc(C(F)(F)F)ccn3)n2C)c(F)c1` [Example 63, N-[5-(2,6-difluoro-4-methoxyphenyl)-1-methyl-3-oxo-2-[4-(trifluoromethyl)pyridin-2-yl]-2,3-dihydro-1H-pyrazol-4-yl]-4-(trifluoromethoxy)benzamide], the EC50 is above 10000 nM on human FPR1 and 7 nM on human FPR2.
The corresponding values for `COc1cc(F)c(-c2c(NC(=O)c3ccc(OC(F)F)cc3)c(=O)n(-c3nc(Cl)ccc3C(F)(F)F)n2C)c(F)c1` [Example 222, N-{2-[6-chloro-3-(trifluoromethyl)pyridin-2-yl]-5-(2,6-difluoro-4-methoxyphenyl)-1-methyl-3-oxo-2,3-dihydro-1H-pyrazol-4-yl}-4-(difluoromethoxy)benzamide] are above 10000 nM and 5 nM.
For `COc1cc(F)c(-c2c(NC(=O)c3ccc(OC(F)F)cc3)c(=O)n(-c3cc(F)cc(C(C)(C)O)c3)n2C)c(F)c1` [Example 148, N-[5-(2,6-difluoro-4-methoxyphenyl)-2-[3-fluoro-5-(2-hydroxypropan-2-yl)phenyl]-1-methyl-3-oxo-2,3-dihydro-1H-pyrazol-4-yl]-4-(difluoromethoxy)benzamide], in that order: 1500 nM and 4 nM.
Take `COc1cc(F)c(-c2c(NC(=O)c3ccc(OC(F)F)cc3)c(=O)n(-c3nc(N4CCC(C)(O)C4)ccc3C(F)(F)F)n2C)c(F)c1` (centres unmarked) [Example 284, N-[5-(2,6-difluoro-4-methoxyphenyl)-2-[6-(3-hydroxy-3-methylpyrrolidin-1-yl)-3-(trifluoromethyl)pyridin-2-yl]-1-methyl-3-oxo-2,3-dihydro-1H-pyrazol-4-yl]-4-(difluoromethoxy)benzamide]: the EC50 at human FPR1 was determined as 1800 nM; on human FPR2, 2 nM.
The corresponding values for `COc1cc(F)c(-c2c(NC(=O)c3ccc(OC(F)F)cc3)c(=O)n(-c3nc(N4CC(F)(F)C4)ccc3Cl)n2C)c(F)c1` [Example 145, N-{2-[3-chloro-6-(3,3-difluoroazatidin-1-yl)pyridin-4-methoxyphenyl)-1-methyl-3-oxo-2,3-dihydro-1H-pyrazol-4-yl}-4-(difluoromethoxy)benzamide] are 2900 nM and 3 nM.
For `COc1cc(F)c(-c2c(NC(=O)c3ccc(OC(F)(F)F)cc3)c(=O)n(-c3ccccc3F)n2C)c(F)c1` [Example 28, N-[5-(2,6-difluoro-4-methoxyphenyl)-2-(2-fluorophenyl)-1-methyl-3-oxo-2,3-dihydro-1H-pyrazol-4-yl]-4-(trifluoromethoxy)benzamide], in that order: 2500 nM and 10 nM.
For `COc1cc(OC(CO)C(F)(F)F)nc(-n2c(=O)c(NC(=O)c3ccc(OC(F)F)cc3)c(-c3c(F)cc(OC)cc3F)n2C)c1` (centres unmarked) [Example 390, N-(5-(2,6-Difluoro-4-methoxyphenyl)-2-(4-methoxy-6-((1,1,1-trifluoro-3-hydroxypropan-2-yl)oxy)pyridin-2-yl)-1-methyl-3-oxo-2,3-dihydro-1H-pyrazol-4-yl)-4-(difluoromethoxy)benzamide], the figures for the concentration for a half-maximal effect (EC50) on human FPR1 and at human FPR2 were 2200 nM and 10 nM, respectively.
For `COc1cc(F)c(-c2c(NC(=O)c3ccc(OC(F)F)cc3)c(=O)n(-c3ncccc3C#N)n2C)c(F)c1` [Example 55, N-[2-(3-cyanopyridin-2-yl)-5-(2,6-difluoro-4-methoxyphenyl)-1-methyl-3-oxo-2,3-dihydro-1H-pyrazol-4-yl]-4-(difluoromethoxy)benzamide], in that order: 9600 nM and 8 nM.
The corresponding values for `[2H]C([2H])([2H])Oc1cc(F)c(-c2c(NC(=O)c3ccc(OC(F)F)cc3)c(=O)n(-c3cc(C(F)F)ccn3)n2C)c(F)c1` [Example 397, N-(5-(2,6-difluoro-4-(methoxy-d3)phenyl)-2-(4-(difluoromethyl)pyridin-2-yl)-1-methyl-3-oxo-2,3-dihydro-1H-pyrazol-4-yl)-4-(difluoromethoxy)benzamide] are above 10000 nM and 8 nM.
